Key:
Calopogonium mucunoides [1] = assay: Herbicidal activity against Calopogonium mucunoides in Corchorus olitorius plots assessed as weed cover at 0.33 kg a.i/ha after 4 weeks (reference value: 20.1+/- 0.57 %); type: functional
Calopogonium mucunoides [2] = assay: Herbicidal activity against Calopogonium mucunoides in Corchorus olitorius plots assessed as weed cover at 0.99 kg a.i/ha after 7 weeks (reference value: 1.7 +/- 0.56 %); type: functional
Synedrella nodiflora [3] = assay: Herbicidal activity against Synedrella nodiflora in Corchorus olitorius plots assessed as weed cover at 1.32 kg a.i/ha after 2 weeks (reference value: 81.7 +/- 0.43 %); type: functional
Calopogonium mucunoides [4] = assay: Herbicidal activity against Calopogonium mucunoides in Corchorus olitorius plots assessed as minor weed growth at 0.66 kg a.i/ha after 2 weeks; type: functional
Synedrella nodiflora [5] = assay: Herbicidal activity against Synedrella nodiflora in Abelmoschus esculentus plots assessed as weed cover at 0.66 kg a.i/ha after 4 weeks (reference value: 22.6 +/- 0.49 %); type: functional
Talinum fruticosum = assay: Herbicidal activity against Talinum fruticosum in Abelmoschus esculentus plots assessed as weed recovery at 0.99 kg a.i/ha after 2 weeks (reference value: 60.1 +/- 0.46 %); type: functional
Chromolaena odorata [6] = assay: Herbicidal activity against Chromolaena odorata in Corchorus olitorius plots assessed as weed cover at 0.33 kg a.i/ha after 4 weeks (reference value: 20.1+/- 0.57 %); type: functional
Calopogonium mucunoides [7] = assay: Herbicidal activity against Calopogonium mucunoides in Corchorus olitorius plots assessed as weed cover at 0.66 kg a.i/ha after 7 weeks (reference value: 1.7 +/- 0.56 %); type: functional
Synedrella nodiflora [8] = assay: Herbicidal activity against Synedrella nodiflora in Corchorus olitorius plots assessed as weed cover at 0.99 kg a.i/ha after 4 weeks (reference value: 20.1+/- 0.57 %); type: functional
Corchorus olitorius [9] = assay: Phytotoxicity in Corchorus olitorius assessed as seed germination at 0.33 kg a.i/ha applied as solution after 7 weeks relative to untreated control; type: organism-based; conditions: in vivo, other, 1176 h
Euphorbia heterophylla [10] = assay: Herbicidal activity against Euphorbia heterophylla in Abelmoschus esculentus plots assessed as weed cover at 0.66 kg a.i/ha after 2 weeks (reference value: 63.5 +/- 0.29 %); type: functional
[11] = system: Rottboellia cochinchinensis; assay: Herbicidal activity against Rottboellia cochinchinensis in Abelmoschus esculentus plots assessed as weed cover at 0.33 kg a.i/ha after 2 weeks (reference value: 63.5 +/- 0.29 %); type: functional
Euphorbia heterophylla [12] = assay: Herbicidal activity against Euphorbia heterophylla in Abelmoschus esculentus plots assessed as weed recovery at 0.99 kg a.i/ha after 2 weeks (reference value: 60.1 +/- 0.46 %); type: functional
Euphorbia heterophylla [13] = assay: Herbicidal activity against Euphorbia heterophylla in Corchorus olitorius plots assessed as weed cover at 0.99 kg a.i/ha after 7 weeks (reference value: 1.7 +/- 0.56 %); type: functional
Cyperus rotundus = assay: Herbicidal activity against Cyperus rotundus in Corchorus olitorius plots assessed as weed cover at 0.66 kg a.i/ha after 2 weeks (reference value: 81.7 +/- 0.43 %); type: functional
Abelmoschus esculentus [14] = assay: Phytotoxicity in Abelmoschus esculentus assessed as root length at 0.99 kg a.i/ha treated to soil after 7 weeks (reference value: 2.9 +/- 0.45 mm); type: organism-based; conditions: in vivo, other, 1176 h
Calopogonium mucunoides [15] = assay: Herbicidal activity against Calopogonium mucunoides in Corchorus olitorius plots assessed as weed cover at 0.99 kg a.i/ha after 2 weeks (reference value: 81.7 +/- 0.43 %); type: functional
Abelmoschus esculentus [16] = assay: Phytotoxicity in Abelmoschus esculentus assessed as shoot length at 0.66 kg a.i/ha treated to soil after 7 weeks (reference value: 8.5 +/- 0.34 mm); type: organism-based; conditions: in vivo, other, 1176 h
Calopogonium mucunoides [17] = assay: Herbicidal activity against Calopogonium mucunoides in Abelmoschus esculentus plots assessed as weed recovery at 0.66 kg a.i/ha after 2 weeks (reference value: 60.1 +/- 0.46 %); type: functional
Euphorbia heterophylla [18] = assay: Herbicidal activity against Euphorbia heterophylla in Abelmoschus esculentus plots assessed as weed recovery at 0.66 kg a.i/ha after 2 weeks (reference value: 60.1 +/- 0.46 %); type: functional
Corchorus olitorius [19] = assay: Phytotoxicity in Corchorus olitorius assessed as shoot length at 0.33 kg a.i/ha treated to soil after 7 weeks (reference value: 23.7 +/- 0.10 mm); type: organism-based; conditions: in vivo, other, 1176 h
Corchorus olitorius [20] = assay: Phytotoxicity in Corchorus olitorius assessed as shoot length at 0.66 kg a.i/ha treated to soil after 7 weeks (reference value: 23.7 +/- 0.10 mm); type: organism-based; conditions: in vivo, other, 1176 h
Ageratum conyzoides = assay: Herbicidal activity against Ageratum conyzoides in Abelmoschus esculentus plots assessed as weed cover at 0.33 kg a.i/ha after 4 weeks (reference value: 22.6 +/- 0.49 %); type: functional
Corchorus olitorius [21] = assay: Phytotoxicity in Corchorus olitorius assessed as shoot length at 1.32 kg a.i/ha treated to soil after 7 weeks (reference value: 23.7 +/- 0.10 mm); type: organism-based; conditions: in vivo, other, 1176 h
Abelmoschus esculentus [22] = assay: Phytotoxicity in Abelmoschus esculentus assessed as crop seedling injury at 0.66 kg a.i/ha after 2 weeks relative to untreated control; type: organism-based; conditions: in vivo, 336 h
Abelmoschus esculentus [23] = assay: Phytotoxicity in Abelmoschus esculentus assessed as shoot length at 0.66 kg a.i/ha applied as solution after 7 weeks (reference value: 28.7 +/- 0.34 mm); type: organism-based; conditions: in vivo, other, 1176 h
Corchorus olitorius [24] = assay: Phytotoxicity in Corchorus olitorius assessed as seed germination at 1.32 kg a.i/ha applied as solution after 7 weeks relative to untreated control; type: organism-based; conditions: in vivo, other, 1176 h
Abelmoschus esculentus [25] = assay: Phytotoxicity in Abelmoschus esculentus assessed as seedling injury at 1.32 kg a.i/ha applied as solution after 7 weeks relative to control; type: organism-based; conditions: in vivo, other, 1176 h
Calopogonium mucunoides [26] = assay: Herbicidal activity against Calopogonium mucunoides in Corchorus olitorius plots assessed as weed cover at 1.32 kg a.i/ha after 7 weeks (reference value: 1.7 +/- 0.56 %); type: functional
Calopogonium mucunoides [27] = assay: Herbicidal activity against Calopogonium mucunoides in Corchorus olitorius plots assessed as weed cover at 0.33 kg a.i/ha after 2 weeks (reference value: 81.7 +/- 0.43 %); type: functional
Synedrella nodiflora [28] = assay: Herbicidal activity against Synedrella nodiflora in Corchorus olitorius plots assessed as major weed growth at 0.99 kg a.i/ha after 2 weeks; type: functional
Synedrella nodiflora [29] = assay: Herbicidal activity against Synedrella nodiflora in Abelmoschus esculentus plots assessed as weed cover at 0.99 kg a.i/ha after 7 weeks (reference value: 14.7 +/- 0.46 %); type: functional
Synedrella nodiflora [30] = assay: Herbicidal activity against Synedrella nodiflora in Abelmoschus esculentus plots assessed as weed cover at 0.66 kg a.i/ha after 7 weeks (reference value: 14.7 +/- 0.46 %); type: functional
Asteraceae = assay: Herbicidal activity against Aspilia africana in Corchorus olitorius plots assessed as weed cover at 0.66 kg a.i/ha after 4 weeks (reference value: 20.1+/- 0.57 %); type: functional
Corchorus olitorius [31] = assay: Phytotoxicity in Corchorus olitorius assessed as crop seedling injury at 0.66 kg a.i/ha after 2 weeks relative to untreated control; type: organism-based; conditions: in vivo, 336 h
Chromolaena odorata [32] = assay: Herbicidal activity against Chromolaena odorata in Corchorus olitorius plots assessed as major weed growth at 0.33 kg a.i/ha after 2 weeks; type: functional

## CCC(CC)Nc1c([N+](=O)[O-])cc(C)c(C)c1[N+](=O)[O-] [PENDIMETHALIN]
Calopogonium mucunoides [1]
  Activity: 73.3%
Calopogonium mucunoides [2]
  Activity: 95%
Synedrella nodiflora [3]
  Activity: 41.7%
Calopogonium mucunoides [4]
  Activity: 1 /m2
Synedrella nodiflora [5]
  Activity: 47.9%
Talinum fruticosum
  Activity: 36.2%
Chromolaena odorata [6]
  Activity: 73.3%
Calopogonium mucunoides [7]
  Activity: 100%
Synedrella nodiflora [8]
  Activity: 48.3%
Corchorus olitorius [9]
  Activity: 88.7%
Euphorbia heterophylla [10]
  Activity: 50.8%
[11]
  Activity: 56.8%
Euphorbia heterophylla [12]
  Activity: 36.2%
Euphorbia heterophylla [13]
  Activity: 95%
Cyperus rotundus
  Activity: 51.7%
Abelmoschus esculentus [14]
  Activity: 1.1 mm
Calopogonium mucunoides [15]
  Activity: 51.7%
Abelmoschus esculentus [16]
  Activity: 5.8 mm
Calopogonium mucunoides [17]
  Activity: 47.9%
Euphorbia heterophylla [18]
  Activity: 47.9%
Corchorus olitorius [19]
  Activity: 18.8 mm
Corchorus olitorius [20]
  Activity: 20.8 mm
Ageratum conyzoides
  Activity: 53.8%
Corchorus olitorius [21]
  Activity: 19.4 mm
Abelmoschus esculentus [22]
  Activity: 42.1%
Abelmoschus esculentus [23]
  Activity: 14.7 mm
Corchorus olitorius [24]
  Activity: 68.3%
Abelmoschus esculentus [25]
  Activity: 56.8%
Calopogonium mucunoides [26]
  Activity: 95%
Calopogonium mucunoides [27]
  Activity: 63.3%
Synedrella nodiflora [28]
  Activity: 31 /m2
Synedrella nodiflora [29]
  Activity: 83.9%
Synedrella nodiflora [30]
  Activity: 90%
Asteraceae
  Activity: 63.3%
Corchorus olitorius [31]
  Activity: 41.7%
Chromolaena odorata [32]
  Activity: 31 /m2

Source: ChEMBL document CHEMBL3044789, “Comparing weed and crop seedling response to pre-emergence pendimethalin application in Corchorus olitorius and Abelmoschus esculentus” (Crop Prot, 2006)
